From PubChem BioAssay AID342 (DTP/NCI, 2004)
Where “and” joins values, the source holds several entries; their conditions need not be identical. Equal values may be shown once.

Tested on: Swiss mice, Sarcoma 180 sc, mean tumor weight T/C
Assay: NCI In Vivo Anticancer Drug Screen. Data for tumor model Sarcoma 180 (subcutaneous) in Swiss mice
Conditions: endpoint: mean tumor weight, higher = larger tumour
Method: The antitumor activity of compounds was measured in mice bearing transplantable tumors. Survival or tumor size were measured and the results are expressed as the measurement made in the treated group (T) divided by the measurement made in the vehicle treated control group (C). The tumor model used in this assay is Sarcoma 180 (subcutaneous) in Swiss mice

[1] = dose: 25.0 mg/kg/injection, schedule: Q01DX007 (ip), vehicle: carboxymethylcellulose (CMC)
[2] = dose: 50.0 mg/kg/injection, schedule: Q01DX007 (ip), vehicle: carboxymethylcellulose (CMC)
[3] = dose: 125.0 mg/kg/injection, schedule: Q01DX007 (ip), vehicle: saline
[4] = dose: 125.0 mg/kg/injection, schedule: Q01DX007 (ip), vehicle: other

## CC[C@](C)(O)C(=O)O[C@H]1C(=O)O[C@@H]2C[C@H]3C(C)=C[C@H](O)[C@@H](O)[C@]3(C)[C@H]3[C@@]4(O)OC[C@]32[C@@H]1[C@@H](C)[C@H]4O
dose: 0.5 mg/kg/injection, schedule: Q01DX007 (sc), vehicle: olive oil, sesame oil, peanut oil
  T/C: 60 % of control
dose: 1.0 mg/kg/injection, schedule: Q01DX007 (sc), vehicle: olive oil, sesame oil, peanut oil
  T/C: 64 % of control
dose: 2.0 mg/kg/injection, schedule: Q01DX007 (sc), vehicle: olive oil, sesame oil, peanut oil
  T/C: 67 % of control
dose: 4.0 mg/kg/injection, schedule: Q01DX007 (sc), vehicle: olive oil, sesame oil, peanut oil
  T/C: 77 % of control and 80 % of control
dose: 6.0 mg/kg/injection, schedule: Q01DX007 (sc), vehicle: olive oil, sesame oil, peanut oil
  T/C: 97 % of control
dose: 9.0 mg/kg/injection, schedule: Q01DX007 (sc), vehicle: olive oil, sesame oil, peanut oil
  T/C: 93 % of control

## O=C1C=CC(=O)N1c1ccc2c(c1)C(Br)c1ccccc1-2 (stereo not given)
dose: 3.0 mg/kg/injection, schedule: Q#A X014 (ip), vehicle: carboxymethylcellulose (CMC)
  T/C: 97 % of control
dose: 5.5 mg/kg/injection, schedule: Q#A X014 (ip), vehicle: carboxymethylcellulose (CMC)
  T/C: 73 % of control
dose: 11.0 mg/kg/injection, schedule: Q#A X014 (ip), vehicle: carboxymethylcellulose (CMC)
  T/C: 109 % of control
dose: 11.0 mg/kg/injection, schedule: Q#A X014 (ip), vehicle: methylcellulose (MC)
  T/C: 45 % of control and 52 % of control
dose: 16.5 mg/kg/injection, schedule: Q#A X014 (ip), vehicle: carboxymethylcellulose (CMC)
  T/C: 102 % of control
dose: 16.5 mg/kg/injection, schedule: Q#A X014 (ip), vehicle: methylcellulose (MC)
  T/C: 32 % of control and 50 % of control
dose: 25.0 mg/kg/injection, schedule: Q#A X014 (ip), vehicle: carboxymethylcellulose (CMC)
  T/C: 99 % of control
dose: 25.0 mg/kg/injection, schedule: Q#A X014 (ip), vehicle: methylcellulose (MC)
  T/C: 40 % of control
dose: 37.5 mg/kg/injection, schedule: Q#A X014 (ip), vehicle: carboxymethylcellulose (CMC)
  T/C: 89 % of control

## CCCCC(=O)OCC1OC(n2cnc3c(=S)nc[nH]c32)C(OC(=O)CCCC)C1OC(=O)CCCC (stereo not given)
dose: 75.0 mg/kg/injection, schedule: Q01DX007 (ip), vehicle: carboxymethylcellulose (CMC)
  T/C: 69 % of control
dose: 125.0 mg/kg/injection, schedule: Q01DX007 (ip), vehicle: carboxymethylcellulose (CMC)
  T/C: 34 % of control
dose: 220.0 mg/kg/injection, schedule: Q01DX007 (ip), vehicle: carboxymethylcellulose (CMC)
  T/C: 96 % of control
dose: 335.0 mg/kg/injection, schedule: Q01DX007 (ip), vehicle: carboxymethylcellulose (CMC)
  T/C: 81 % of control
dose: 750.0 mg/kg/injection, schedule: Q01DX007 (ip), vehicle: carboxymethylcellulose (CMC)
  T/C: 43 % of control

## O=C(O)C(=O)O.[U]
dose: 1.5 mg/kg/injection, schedule: Q01DX007 (ip), vehicle: saline
  T/C: 85 % of control
dose: 3.0 mg/kg/injection, schedule: Q01DX007 (ip), vehicle: saline
  T/C: 79 % of control
dose: 6.0 mg/kg/injection, schedule: Q01DX007 (ip), vehicle: saline
  T/C: 82 % of control
dose: 18.5 mg/kg/injection, schedule: Q01DX007 (ip), vehicle: saline
  T/C: 32 % of control
dose: 27.8 mg/kg/injection, schedule: Q01DX007 (ip), vehicle: saline
  T/C: 33 % of control and 42 % of control
dose: 41.7 mg/kg/injection, schedule: Q01DX007 (ip), vehicle: saline
  T/C: 41 % of control
dose: 62.5 mg/kg/injection, schedule: Q01DX007 (ip), vehicle: saline
  T/C: 35 % of control
dose: 93.8 mg/kg/injection, schedule: Q01DX007 (ip), vehicle: saline
  T/C: 39 % of control

## Oc1cc(O)c2c(c1)O[C@H](c1ccc(O)c(O)c1)[C@@H](O)C2
dose: 6.25 mg/kg/injection, schedule: Q01DX007 (ip), vehicle: saline
  T/C: 84 % of control
dose: 12.5 mg/kg/injection, schedule: Q01DX007 (ip), vehicle: saline
  T/C: 99 % of control
dose: 25.0 mg/kg/injection, schedule: Q01DX007 (ip), vehicle: saline
  T/C: 88 % of control
dose: 100.0 mg/kg/injection, schedule: Q01DX007 (ip), vehicle: saline
  T/C: 83 % of control
dose: 200.0 mg/kg/injection, schedule: Q01DX007 (ip), vehicle: saline
  T/C: 87 % of control
dose: 400.0 mg/kg/injection, schedule: Q01DX007 (ip), vehicle: saline
  T/C: 80 % of control

## Nc1nc(=O)n(C2CC(O)C(CO)O2)cc1F (stereo not given)
dose: 22.0 mg/kg/injection, schedule: Q#A X014 (ip), vehicle: saline
  T/C: 10 % of control
dose: 33.5 mg/kg/injection, schedule: Q#A X014 (ip), vehicle: saline
  T/C: 7 % of control
dose: 50.0 mg/kg/injection, schedule: Q#A X014 (ip), vehicle: saline
  T/C: 3 % of control
dose: 75.0 mg/kg/injection, schedule: Q#A X014 (ip), vehicle: saline
  T/C: 2 % of control

## CS(=O)(=O)OCC#CCOS(C)(=O)=O
dose: 10.0 mg/kg/injection, schedule: Q01DX007 (ip), vehicle: saline
  T/C: 99 % of control
dose: 20.0 mg/kg/injection, schedule: Q01DX007 (ip), vehicle: saline
  T/C: 84 % of control
dose: 40.0 mg/kg/injection, schedule: Q01DX007 (ip), vehicle: saline
  T/C: 104 % of control

## NCC(=O)O.[Zn+2]
dose: 1.25 mg/kg/injection, schedule: Q01DX007 (iv), vehicle: water
  T/C: 99 % of control
dose: 2.5 mg/kg/injection, schedule: Q01DX007 (iv), vehicle: water
  T/C: 83 % of control
dose: 5.0 mg/kg/injection, schedule: Q01DX007 (iv), vehicle: water
  T/C: 113 % of control
dose: 10.0 mg/kg/injection, schedule: Q01DX007 (iv), vehicle: water
  T/C: 95 % of control

## CC(C)CN(C)/N=N/c1nc[nH]c1C(N)=O
[1]
  T/C: 92 % of control
[2]
  T/C: 41 % of control

## CCCCCCCCCCCCCCCC[N+]1(C)CCN(SN2CC[N+](C)(CCCCCCCCCCCCCCCC)CC2)CC1
dose: 21.0 mg/kg/injection, schedule: Q#A X014 (ip), vehicle: saline
  T/C: 55 % of control and 77 % of control
dose: 31.5 mg/kg/injection, schedule: Q#A X014 (ip), vehicle: saline
  T/C: 53 % of control and 76 % of control
dose: 47.5 mg/kg/injection, schedule: Q#A X014 (ip), vehicle: saline
  T/C: 65 % of control
dose: 71.5 mg/kg/injection, schedule: Q#A X014 (ip), vehicle: saline
  T/C: 37 % of control

## COc1ccc2c(c1)CC[C@@H]1[C@@H]2CC[C@@]2(C)[C@H]1CC[C@]2(C)O
dose: 0.5 mg/kg/injection, schedule: Q#A X014 (sc), vehicle: steriod suspending solution
  T/C: 80 % of control
dose: 5.0 mg/kg/injection, schedule: Q#A X014 (sc), vehicle: steriod suspending solution
  T/C: 113 % of control
dose: 50.0 mg/kg/injection, schedule: Q#A X014 (sc), vehicle: steriod suspending solution
  T/C: 68 % of control

## OCCOCC(F)(F)F
[3]
  T/C: 100 % of control
dose: 250.0 mg/kg/injection, schedule: Q01DX007 (ip), vehicle: saline
  T/C: 101 % of control
dose: 500.0 mg/kg/injection, schedule: Q01DX007 (ip), vehicle: saline
  T/C: 63 % of control

## CCCCn1cnc2c(SSc3ncnc4c3ncn4CCCC)ncnc21
dose: 53.0 mg/kg/injection, schedule: Q01DX007 (ip), vehicle: carboxymethylcellulose (CMC)
  T/C: 82 % of control
dose: 53.0 mg/kg/injection, schedule: Q01DX007 (ip), vehicle: other
  T/C: 62 % of control
dose: 83.0 mg/kg/injection, schedule: Q01DX007 (ip), vehicle: other
  T/C: 65 % of control
dose: 83.0 mg/kg/injection, schedule: Q01DX007 (ip), vehicle: saline
  T/C: 71 % of control
[4]
  T/C: 50 % of control
[3]
  T/C: 37 % of control
dose: 187.0 mg/kg/injection, schedule: Q01DX007 (ip), vehicle: other
  T/C: 30 % of control

## CCc1nc(N)nc(N)c1-c1ccc(Cl)cc1
dose: 6.25 mg/kg/injection, schedule: Q01DX007 (ip), vehicle: carboxymethylcellulose (CMC)
  T/C: 114 % of control
dose: 12.5 mg/kg/injection, schedule: Q01DX007 (ip), vehicle: carboxymethylcellulose (CMC)
  T/C: 88 % of control
[1]
  T/C: 114 % of control
[2]
  T/C: 77 % of control

## Oc1ccccc1C(Nc1nc2ccccc2s1)c1ccc2cccnc2c1O (stereo not given)
dose: 62.0 mg/kg/injection, schedule: Q01DX007 (ip), vehicle: other
  T/C: 94 % of control
[4]
  T/C: 97 % of control
dose: 250.0 mg/kg/injection, schedule: Q01DX007 (ip), vehicle: other
  T/C: 46 % of control

## C/C=C1/CN(C)C2Cc3c([nH]c4ccccc34)C(c3cc4[nH]c5c(c4cc3OC)CCN3CC4CC(C(C)O)C3C5(C(=O)OC)C4)CC1C2C(=O)OC (stereo not given)
dose: 10.0 mg/kg/injection, schedule: Q01DX007 (ip), vehicle: water
  T/C: 54 % of control
dose: 20.0 mg/kg/injection, schedule: Q01DX007 (ip), vehicle: water
  T/C: 97 % of control
dose: 30.0 mg/kg/injection, schedule: Q01DX007 (ip), vehicle: water
  T/C: 87 % of control
dose: 40.0 mg/kg/injection, schedule: Q01DX007 (ip), vehicle: water
  T/C: 80 % of control
